Test results: US20230146455A1, “TREATMENT OF INFLAMMATORY DISEASES WITH PEPTIDES AND PHARMACEUTICAL COMPOSITIONS” (Yuyu Pharma, Inc., priority 2020, published 2023)
“And” between values parts separate entries of the source, which are not always exact repeats. Identical values can stand only once. Where a SMILES comes first, the peptide text is derived from it. [ ]: non-standard residue; d: D form. Hyp = O=C(O)[C@@H]1C[C@@H](O)CN1

Tested on: GM-CSF
Assay: Example 9 Luminex, LPS hPBMCs: GM-CSF
Assay type: cell-based, human
Method: Treatment Human PBMCs were pretreated with YY-101, YDE-011 and YDE-043 or reference compound; Xiidra® at various concentration (ranging from 1 nM to 100 uM) for 2 h before stimulation. An equal volume of 0.5% DMSO was used as a vehicle control. Then, the cells were treated with LPS at 5 ug/ml. The supernatants from treated cells were harvested at 24 h and placed in a 96 well for Luminex cytokine & chemokine profiling using a Luminex 200 multiplex assay (Luminex; R&D system, USA).
The main study arm with triplicate wells per group in a 24-well plate: • 1. Blank • 2. PBMC: 0.5% DMSO • 3. PBMC+LPS (5 ug/ml) • 4. PBMC+YY-101 100 uM • 5. PBMC+YY-101 10 uM • 6. PBMC+YY-101 1 uM • 7. PBMC+YY-101 0.1 uM • 8. PBMC+YY-101 0.01 uM • 9. PBMC+LPS (5 ug/ml)+Xiidra®100 uM • 10. PBMC+LPS (5 ug/ml)+Xiidra® 10 uM • 11. PBMC+LPS (5 ug/ml)+Xiidra® 1 uM • 12. PBMC+LPS (5 ug/ml)+Xiidra®0.1 uM • 13. PBMC+LPS (5 ug/ml)+Xiidra®0.01 uM • 14. PBMC+LPS (5 ug/ml)+Xiidra®0.001 uM • 15. PBMC+LPS (5 ug/ml)+YY-101 100 uM • 16. PBMC+LPS (5 ug/ml)+YY-101 10 uM • 17. PBMC+LPS (5 ug/ml)+YY-101 1 uM • 18. PBMC+LPS (5 ug/ml)+YY-101 0.1 uM • 19. PBMC+LPS (5 ug/ml)+YY-101 0.01 uM • 20. PBMC+LPS (5 ug/ml)+YY-101 0.001 uM • 21. PBMC+LPS (5 ug/ml)+YDE-011 100 uM • 22. PBMC+LPS (5 ug/ml)+YDE-011 10 uM • 23. PBMC+LPS (5 ug/ml)+YDE-011 1 uM • 24. PBMC+LPS (5 ug/ml)+YDE-011 0.1 uM • 25. PBMC+LPS (5 ug/ml)+YDE-011 0.01 uM • 26. PBMC+LPS (5 ug/ml)+YDE-011 0.001 uM • 27. PBMC+LPS (5 ug/ml)+YDE-043 100 uM • 28. PBMC+LPS (5 ug/ml)+YDE-043 10 uM • 29. PBMC+LPS (5 ug/ml)+YDE-043 1 uM • 30. PBMC+LPS (5 ug/ml)+YDE-043 0.1 uM • 31. PBMC+LPS (5 ug/ml)+YDE-043 0.01 uM • 32. PBMC+LPS (5 ug/ml)+YDE-043 0.001 uM
Multiplex assay was used to measure 30 cytokines and chemokines. The 1:2, 1:10 and 1:200 diluted cell supernatant and serial dilution of the standard were dispensed into a 96 well plate at 50 ul/well. Then, the pre-mixed cocktail of antibody-coated magnetic beads was dispensed at 50 ul/well and incubated at room temperature for 2 h in a horizontal orbital microplate shaker at 800±500 rpm. The beads were washed using a magnetic device to prevent loss. The biotin-antibody was dispensed in 50 ul of each well and incubated at room temperature for 1 h in a shaker at 800±500 rpm. After washing, streptavidin-PE was added at 50 ul/well and incubated at room temperature for 30 min in a shaker under the same conditions. Finally, after washing, wash buffer (100 ul/well) was added to the plate and incubated in a shaker for 2 min. The Luminex™ 200 setting were set according to the manufacturer's protocol. The data was calculated with a standard five-parameter logistic nonlinear regression analysis of the data (xPonent software 4.2, USA). The levels of cytokine/chemokine are normalized to the live cell counts (1×10^5 cells/mL) and presented as concentrations per mL (pg/mL or ng/mL).

[1] = PBMC + LPS(5 ug/ml) + test article 0.001 uM, Mean
[2] = PBMC + LPS(5 ug/ml) + test article 0.001 uM, single replicates
[3] = PBMC + LPS(5 ug/ml) + test article 0.01 uM, Mean
[4] = PBMC + LPS(5 ug/ml) + test article 0.01 uM, single replicates
[5] = PBMC + LPS(5 ug/ml) + test article 0.1 uM, Mean
[6] = PBMC + LPS(5 ug/ml) + test article 0.1 uM, single replicates
[7] = PBMC + LPS(5 ug/ml) + test article 1 uM, Mean
[8] = PBMC + LPS(5 ug/ml) + test article 1 uM, single replicates
[9] = PBMC + LPS(5 ug/ml) + test article 10 uM, Mean
[10] = PBMC + LPS(5 ug/ml) + test article 10 uM, single replicates
[11] = PBMC + LPS(5 ug/ml) + test article 100 uM, Mean
[12] = PBMC + LPS(5 ug/ml) + test article 100 uM, single replicates
[13] = PBMC + test article 0.01 uM, no LPS, Mean
[14] = PBMC + test article 0.01 uM, no LPS, single replicates
[15] = PBMC + test article 0.1 uM, no LPS, Mean
[16] = PBMC + test article 0.1 uM, no LPS, single replicates
[17] = PBMC + test article 1 uM, no LPS, Mean
[18] = PBMC + test article 1 uM, no LPS, single replicates
[19] = PBMC + test article 10 uM, no LPS, Mean
[20] = PBMC + test article 10 uM, no LPS, single replicates
[21] = PBMC + test article 100 uM, no LPS, Mean
[22] = PBMC + test article 100 uM, no LPS, single replicates

CC(C)C[C@H](NC(=O)CNC(=O)[C@H](CC(C)C)NC(=O)[C@H](CCC(N)=O)NC(=O)CNC(=O)[C@@H]1C[C@@H](O)CN1)C(=O)N[C@@H](C)C(=O)NCC(=O)N1CCC[C@H]1C(=O)N[C@@H](CCCCN)C(=O)O [YDE-011] (H-[Hyp]GQLGLAGPK-OH)
GM-CSF Concentration [1]: 97.0 pg/mL | GM-CSF conc/live cell [1]: 18.3 pg/10^5 | GM-CSF Concentration [2]: 92.5 pg/mL and 96.3 pg/mL and 102.1 pg/mL | GM-CSF conc/live cell [2]: 20.6 pg/10^5 and 16.6 pg/10^5 and 17.6 pg/10^5 | GM-CSF Concentration [3]: 103.2 pg/mL | GM-CSF conc/live cell [3]: 17.9 pg/10^5 | GM-CSF Concentration [4]: 90.4 pg/mL and 108.0 pg/mL and 111.3 pg/mL | GM-CSF conc/live cell [4]: 14.3 pg/10^5 and 17.4 pg/10^5 and 21.8 pg/10^5 | GM-CSF Concentration [5]: 95.6 pg/mL | GM-CSF conc/live cell [5]: 16.7 pg/10^5 | GM-CSF Concentration [6]: 100.5 pg/mL and 90.8 pg/mL and 95.4 pg/mL | GM-CSF conc/live cell [6]: 15.2 pg/10^5 and 18.2 pg/10^5 and 16.7 pg/10^5 | GM-CSF Concentration [7]: 93.9 pg/mL | GM-CSF conc/live cell [7]: 18.7 pg/10^5 | GM-CSF Concentration [8]: 96.3 pg/mL and 92.5 pg/mL and 92.9 pg/mL | GM-CSF conc/live cell [8]: 17.5 pg/10^5 and 19.3 pg/10^5 and 19.4 pg/10^5 | GM-CSF Concentration [9]: 98.2 pg/mL | GM-CSF conc/live cell [9]: 18.7 pg/10^5 | GM-CSF Concentration [10]: 103.0 pg/mL and 92.9 pg/mL and 98.8 pg/mL | GM-CSF conc/live cell [10]: 19.1 pg/10^5 and 16.0 pg/10^5 and 21.0 pg/10^5 | GM-CSF Concentration [11]: 135.7 pg/mL | GM-CSF conc/live cell [11]: 22.4 pg/10^5 | GM-CSF Concentration [12]: 149.0 pg/mL and 127.8 pg/mL and 130.3 pg/mL | GM-CSF conc/live cell [12]: 24.4 pg/10^5 and 21.0 pg/10^5 and 21.7 pg/10^5

CC(C)C[C@H](NC(=O)CNC(=O)[C@H](CC(=O)O)NC(=O)[C@H](CCC(N)=O)NC(=O)CNC(=O)[C@@H]1C[C@@H](O)CN1)C(=O)N[C@@H](C)C(=O)NCC(=O)N1CCC[C@H]1C(=O)N[C@@H](CCCCN)C(=O)O [YY-101] (H-[Hyp]GQDGLAGPK-OH; N-terminus and C-terminus assumed)
GM-CSF Concentration [1]: 159.8 pg/mL | GM-CSF conc/live cell [1]: 24.7 pg/10^5 | GM-CSF Concentration [2]: 138.9 pg/mL and 160.4 pg/mL and 180.1 pg/mL | GM-CSF conc/live cell [2]: 24.4 pg/10^5 and 22.6 pg/10^5 and 27.3 pg/10^5 | GM-CSF Concentration [3]: 159.0 pg/mL | GM-CSF conc/live cell [3]: 25.8 pg/10^5 | GM-CSF Concentration [4]: 164.4 pg/mL and 159.6 pg/mL and 153.1 pg/mL | GM-CSF conc/live cell [4]: 25.7 pg/10^5 and 26.6 pg/10^5 and 25.1 pg/10^5 | GM-CSF Concentration [5]: 139.7 pg/mL | GM-CSF conc/live cell [5]: 23.9 pg/10^5 | GM-CSF Concentration [6]: 150.7 pg/mL and 135.6 pg/mL and 132.7 pg/mL | GM-CSF conc/live cell [6]: 24.3 pg/10^5 and 26.1 pg/10^5 and 21.4 pg/10^5 | GM-CSF Concentration [7]: 141.2 pg/mL | GM-CSF conc/live cell [7]: 21.7 pg/10^5 | GM-CSF Concentration [8]: 137.2 pg/mL and 133.1 pg/mL and 153.1 pg/mL | GM-CSF conc/live cell [8]: 21.8 pg/10^5 and 18.8 pg/10^5 and 24.7 pg/10^5 | GM-CSF Concentration [9]: 148.1 pg/mL | GM-CSF conc/live cell [9]: 22.5 pg/10^5 | GM-CSF Concentration [10]: 153.1 pg/mL and 143.8 pg/mL and 147.4 pg/mL | GM-CSF conc/live cell [10]: 25.5 pg/10^5 and 22.5 pg/10^5 and 19.4 pg/10^5 | GM-CSF Concentration [11]: 224.0 pg/mL | GM-CSF conc/live cell [11]: 38.7 pg/10^5 | GM-CSF Concentration [12]: 239.6 pg/ml and 216.3 pg/ml (2×) | GM-CSF conc/live cell [12]: 38.0 pg/10^5 and 34.9 pg/10^5 and 43.3 pg/10^5 | GM-CSF Concentration [13]: 5.8 pg/mL | GM-CSF conc/live cell [13]: 1.2 pg/10^5 | GM-CSF Concentration [14]: 5.3 pg/mL and 6.3 pg/mL | GM-CSF conc/live cell [14]: 1.0 pg/10^5 and 1.3 pg/10^5 | GM-CSF Concentration [15]: 4.4 pg/mL | GM-CSF conc/live cell [15]: 0.8 pg/10^5 | GM-CSF Concentration [16]: 1.9 pg/mL and 6.9 pg/mL | GM-CSF conc/live cell [16]: 0.4 pg/10^5 and 1.2 pg/10^5 | GM-CSF Concentration [17]: 4.4 pg/mL | GM-CSF conc/live cell [17]: 0.8 pg/10^5 | GM-CSF Concentration [18]: 4.7 pg/mL and 4.2 pg/mL | GM-CSF conc/live cell [18]: 0.9 pg/10^5 and 0.8 pg/10^5 | GM-CSF Concentration [19]: 23.5 pg/mL | GM-CSF conc/live cell [19]: 3.7 pg/10^5 | GM-CSF Concentration [20]: 33.5 pg/mL and 13.5 pg/mL | GM-CSF conc/live cell [20]: 5.2 pg/10^5 and 2.2 pg/10^5 | GM-CSF Concentration [21]: 11.0 pg/mL | GM-CSF conc/live cell [21]: 1.7 pg/10^5 | GM-CSF Concentration [22]: 14.5 pg/mL and 7.4 pg/mL | GM-CSF conc/live cell [22]: 2.3 pg/10^5 and 1.1 pg/10^5 | LPS-induced GM-CSF levels (in words) (at 100.iM, LPS 5 ug/mL 24 hrs): further increased
